Molecular target: myeloperoxidase (MPO) (Homo sapiens, UniProt P05164)
Experiment: flash photolysis/recombination kinetics
Assay type: binding

Sequence of myeloperoxidase (MPO) (P05164 165-273): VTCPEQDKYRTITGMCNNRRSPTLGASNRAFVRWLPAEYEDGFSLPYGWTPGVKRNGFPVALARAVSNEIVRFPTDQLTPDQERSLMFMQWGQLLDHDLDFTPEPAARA
Sequence of myeloperoxidase (MPO) (P05164 279-745): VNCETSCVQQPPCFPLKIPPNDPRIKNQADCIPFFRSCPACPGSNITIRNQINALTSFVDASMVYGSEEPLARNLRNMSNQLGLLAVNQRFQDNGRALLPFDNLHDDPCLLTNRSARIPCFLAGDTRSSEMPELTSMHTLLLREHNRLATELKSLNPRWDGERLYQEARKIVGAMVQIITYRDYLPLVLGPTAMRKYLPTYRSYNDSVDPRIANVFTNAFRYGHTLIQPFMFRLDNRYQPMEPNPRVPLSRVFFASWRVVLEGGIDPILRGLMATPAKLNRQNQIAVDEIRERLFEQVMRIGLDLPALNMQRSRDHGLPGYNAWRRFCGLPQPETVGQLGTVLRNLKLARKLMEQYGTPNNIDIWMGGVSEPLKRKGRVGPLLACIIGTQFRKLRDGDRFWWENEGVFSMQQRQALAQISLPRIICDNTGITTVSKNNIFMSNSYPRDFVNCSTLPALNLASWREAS

## [C-]#[O+] [CO]
  Kd: 1.6 mM

From publication PMC4529485 (Biochemistry, 2010)
